Reference: US20070043104A1, “UII-modulating compounds and their use” (priority 2005, published 2007)
Counter-ions that a name gives are not always drawn. Like-named read-outs stand apart in the source and are kept apart here.

Target: T1, human urotensin II receptor (Homo sapiens, UniProt Q9UKP6)
T1 construct: expressed in transfected cells; host or cells: NIH3T3 cells
T1 sequence (Q9UKP6 1-389): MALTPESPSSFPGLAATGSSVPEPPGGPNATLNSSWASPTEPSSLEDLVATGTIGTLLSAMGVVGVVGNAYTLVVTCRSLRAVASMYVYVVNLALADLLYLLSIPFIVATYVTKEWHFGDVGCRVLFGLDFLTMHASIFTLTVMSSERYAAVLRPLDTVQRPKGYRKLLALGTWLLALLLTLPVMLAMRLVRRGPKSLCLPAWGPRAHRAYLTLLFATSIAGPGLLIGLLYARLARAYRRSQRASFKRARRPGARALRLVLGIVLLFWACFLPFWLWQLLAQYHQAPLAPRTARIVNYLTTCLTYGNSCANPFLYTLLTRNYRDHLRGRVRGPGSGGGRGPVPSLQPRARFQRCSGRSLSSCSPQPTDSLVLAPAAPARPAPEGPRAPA
Experiment: Receptor Selection and Amplification (R-SAT) functional assay, NIH3T3 cells transfected with human urotensin II receptor and β-galactosidase marker
Format: cell-based
Conditions: for EC50 / pEC50: eight doses in triplicate
Procedure: The functional receptor assay, Receptor Selection and Amplification Technology (R-SAT™), was used (with minor modifications from the procedure described previously (Brann, M. R. U.S. Pat. No. 5,707,798, 1998; Chem. Abstr. 1998, 128, 111548) to screen compounds for efficacy at the UII receptor. The RSAT assay was conducted as described herein.
Briefly, NIH3T3 cells were grown in tissue culture treated rollerbottles to 40-80% confluence in Dulbecco's modified Eagle's medium (DMEM) supplemented with 10% bovine calf serum (Hyclone) and 1% penicillin/streptomycin/glutamine (Invitrogen). Cells were transfected for 12-18 hours with the human urotensin II receptor and the β-galactosidase marker. After transfection, the cells were trypsinized, harvested and frozen in DMEM containing 10% DMSO. Frozen cells were later thawed and tested for a response to a control compound to perform quality control before initiation of pharmacological testing, ensuring the correct pharmacological response and sufficient sensitivity. To initiate the pharmacological assay, cells were thawed rapidly and prepared in DMEM media containing 0.4% calf serum (Hyclone), 30% UltraCulture (Biowhittaker), and 1% penicillin/streptomycin/glutamine (Invitrogen), and then plated at 10,000-40,000 cells per well of a 96½ area plate that contained either the test compounds or reference ligands. Cells were then grown in a humidified atmosphere with 5% ambient CO2 for five days. Media was then removed from the plates and marker gene activity was measured by the addition of the beta-galactosidase substrate ONPG (in PBS with 5% NP-40). The resulting colorimetric reaction was measured in a spectrophotometric plate reader (Titertek Inc.) at […].
pEC50 represents the negative logarithm of the concentration of ligand that caused 50% activation of the basal receptor response. Percent activation was calculated as the difference between the absorbance measurements in the absence of added ligand compared with that in the presence of saturating concentrations of ligand normalized to the absorbance difference for the reference ligand, which was assigned a value of 100%.
Results were determined in R-SAT assays and are expressed as pEC50, the negative of the log EC50 in molarity. Results are the average±standard deviation of 2-X determinations of the EC50 where each compound was tested in eight doses in triplicate.

[1] = NIH3T3, Table 4, % efficacy normalized to UII at 100%
[2] = Table 4, negative of the log EC50 in molarity, average ± standard deviation of 2-5 determinations
[3] = NIH3T3, Table 3, percent activation normalized to the reference ligand assigned 100%, read-out: Efficacy
[4] = Table 3, negative of the log EC50 in molarity, average ± standard deviation (or range) of determinations

CN(C)CCC(NC(=O)CCc1ccc(C(F)(F)F)cc1)c1ccc(Cl)cc1 (stereo not drawn) [A5, N-[1-(4-Chlorophenyl)-3-dimethylamino-propyl]-3-(4-trifluoromethylphenyl) propionamide HCl]
Emax [1]: 73 ± 10%
EC50 [2]: 1120 nM

Cc1cccc(C(=O)NC(CCN(C)C)c2ccc(Cl)cc2)c1C.O=C(O)C(=O)O (stereo not drawn) [5f, N-[1-(4-Chlorophenyl)-3-dimethylamino-propyl]-2,3-dimethyl-benzamide oxalate]
Emax [3]: 159 ± 1%
pEC50 [4]: 5.44 ± 0.08

COc1ccc(CCC(=O)NC(CCN(C)C)c2ccc(Cl)cc2)cc1 (stereo not drawn) [A6, N-[1-(4-Chlorophenyl)-3-dimethylamino-propyl]-3-(4-methoxyphenyl)propanamide HCl]
Emax [1]: 101 ± 12%
EC50 [2]: 2950 nM

CN(C)CCC(NC(=O)C=Cc1ccc(C(F)(F)F)cc1)c1ccc(Cl)cc1 (stereo not drawn) [A8, N-[1-(4-Chlorophenyl)-3-dimethylamino-propyl]-4-trifluoromethyl-cinnamic amide HCl]
Emax [1]: 133 ± 3%
EC50 [2]: 129 nM

COc1ccc(C(=O)NC(CCN(C)C)c2ccc(Cl)cc2)cc1.O=C(O)C(=O)O (stereo not drawn) [5d, N-[1-(4-Chlorophenyl)-3-dimethylaminopropyl]-4-methoxy-benzamide oxalate]
Emax [3]: 148 ± 33%
pEC50 [4]: 5.87 ± 0.2

COc1ccc(C(=O)OC(CCN(C)C)c2ccc(Cl)cc2)cc1 (stereo not drawn) [4p, 1-(4-Chlorophenyl)-3-dimethylamino-propyl 4-methoxy-benzoate oxalate]
Emax [3]: 52 to 101%
EC50 [4]: 1550 to 3720 nM

Cc1ccccc1NC(=O)OC(CCN(C)C)c1ccc(Cl)cc1 (stereo not drawn) [7a, N-[1-(4-Chlorophenyl)-3-dimethylaminopropyloxycarbonyl]-2-methylphenyl-amine]
Emax [3]: 170 ± 21%
pEC50 [4]: 5.41 ± 0.07

CN(C)CCC(NC(=O)c1ccc(Oc2ccccc2)cc1)c1ccc(Cl)cc1.O=C(O)C(=O)O (stereo not drawn) [5p, N-[1-(4-Chlorophenyl)-3-dimethylaminopropyl]-4-phenoxy-benzamide oxalate]
Emax [3]: 91 ± 17%
pEC50 [4]: 7.18 ± 0.2

CN(C)CCC(NC(=O)Cc1ccccc1)c1ccc(Cl)cc1.O=C(O)C(=O)O (stereo not drawn) [5r, N-[1-(4-Chlorophenyl)-3-dimethylaminopropyl]-2-phenyl-acetamide oxalate]
Emax [3]: 154 ± 34%
pEC50 [4]: 5.71 ± 0.16

COc1cccc(C(=O)OC(CCN(C)C)c2ccc(Cl)cc2)c1C (stereo not drawn) [4e, 1-(4-Chlorophenyl)-3-dimethylamino-propyl 3-methoxy-2-methyl-benzoate HCl]
Emax [3]: 120 ± 57%
EC50 [4]: 2090 nM

Cc1c(Cl)cccc1C(=O)OC(CCN(C)C)c1ccc(Cl)cc1.Cl (stereo not drawn) [4f, 1-(4-Chlorophenyl)-3-dimethylamino-propyl 3-chloro-2-methyl-benzoate HCl]
Emax [3]: 118 ± 37%
pEC50 [4]: 5.95 ± 0.05

Cc1ccc(C(=O)OC(CCN(C)C)c2ccc(Cl)cc2)cc1.Cl (stereo not drawn) [4c, 1-(4-Chlorophenyl)-3-dimethylamino-propyl 4-methyl-benzoate HCl]
Emax [3]: 56 ± 6%
pEC50 [4]: 5.56 ± 0.01

Cc1cccc(Cl)c1C(=O)NC(CCN(C)C)c1ccc(Cl)cc1.O=C(O)C(=O)O (stereo not drawn) [5k, N-[1-(4-Chlorophenyl)-3-dimethylamino-propyl]-6-chloro-2-methyl-benzamide oxalate]
Emax [3]: 105 ± 4%
pEC50 [4]: 5.29 ± 0.09

Cc1ccsc1C(=O)OC(CCN(C)C)c1ccc(Cl)cc1.Cl (stereo not drawn) [4j, 1-(4-Chlorophenyl)-3-dimethylamino-propyl 3-methyl-thiophene-2-carboxylate HCl]
Emax [3]: 119 ± 44%
pEC50 [4]: 5.60 ± 0.05

CN(C)CCC(NC(=O)Cc1ccccc1)c1ccc2ccccc2c1 (stereo not drawn) [C1, N-[3-Dimethylamino-1-(2-naphthyl)propyl]-2-phenylacetamide HCl]
Emax [1]: 121 ± 31%
EC50 [2]: 1740 nM

(+)-N-[1-Chlorophenyl)-3-dimethylaminopropyl]-(R)-2-methoxy-2-phenyl-acetamide oxalate [(+) 5s]
pEC50 [4]: 5.30 ± 0.07
Efficacy (Table 3, percent activation normalized to the reference ligand assigned 100%): 112 ± 22%

CN(C)CCC(OC(=O)NCc1ccccc1)c1ccc(Cl)cc1 (stereo not drawn) [7e, N-[1-(4-Chlorophenyl)-3-dimethylaminopropyloxycarbonyl]-benzyl-amine]
Emax [3]: 180 ± 8%
pEC50 [4]: 5.67 ± 0.11

CN(C)CCC(NC(=O)C#Cc1ccccc1)c1ccc2ccccc2c1 (stereo not drawn) [C10, N-[3-Dimethylamino-1-(2-naphthyl)propyl]-3-phenylpropiolic amide HCl]
Emax [1]: 115 ± 14%
EC50 [2]: 457 nM

CN(C)CCC(OC(=O)c1ccc(-c2ccccc2)cc1)c1ccc(Cl)cc1.Cl (stereo not drawn) [4m, 1-(4-Chlorophenyl)-3-dimethylamino-propyl 4-phenyl-benzoate HCl]
Emax [3]: 53 ± 27%
pEC50 [4]: 6.28 ± 0.14

CCc1ccccc1C(=O)NC(CCN(C)C)c1ccc(Cl)cc1 (stereo not drawn) [5c, N-[1-(4-Chlorophenyl)-3-dimethylamino-propyl]-2-ethyl-benzamide oxalate]
Emax [3]: 140 ± 14%
EC50 [4]: 1020 nM

Cc1ccc(C(CCN(C)C)NC(=O)Cc2ccccc2)cc1 (stereo not drawn) [B1, N-[3-Dimethylamino-1-(4-methylphenyl)propyl]-2-phenylacetamide HCl]
Emax [1]: 83 ± 11%
EC50 [2]: 4170 nM

CN(C)CCC(NC(=O)/C=C/c1ccccc1)c1ccc2ccccc2c1 (stereo not drawn) [C7, N-[3-Dimethylamino-1-(2-naphthyl)propyl]-3-cinnamic amide HCl]
Emax [1]: 116 ± 3%
EC50 [2]: 589 nM

Cc1ccccc1NC(=O)NC(CCN(C)C)c1ccc(Cl)cc1 (stereo not drawn) [8a, 1-[1-(4-Chlorophenyl)-3-dimethylaminopropyl]-3-(2-methylphenyl)-carbamide oxalate]
Emax [3]: 166 ± 24%
pEC50 [4]: 5.64 ± 0.15

Cc1ccc(C(CCN(C)C)NC(=O)C#Cc2ccccc2)cc1 (stereo not drawn) [B10, N-[3-Dimethylamino-1-(4-methylphenyl)propyl]-3-phenylpropiolic amide]
Emax [1]: 131%
EC50 [2]: 3090 nM

CN(C)CCC(NC(=O)Nc1ccc(Oc2ccccc2)cc1)c1ccc(Cl)cc1 (stereo not drawn) [8d, 1-[1-(4-Chlorophenyl)-3-dimethylaminopropyl]-3-(4-phenoxyphenyl)-carbamide oxalate oxalate]
Emax [3]: 102 to 119%
EC50 [4]: 63.1 to 145 nM

CN(C)CCC(NC(=O)C#Cc1ccccc1)c1ccc(Cl)cc1 (stereo not drawn) [A10, N-[1-(4-Chlorophenyl)-3-dimethylamino-propyl]-3-phenylpropiolic amide HCl]
Emax [1]: 124 ± 6%
EC50 [2]: 398 nM

CN(C)CCC(NC(=O)Nc1ccc(C(C)(C)C)cc1)c1ccc(Cl)cc1 (stereo not drawn) [8c, 1-[1-(4-Chlorophenyl)-3-dimethylaminopropyl]-3-(4-tert-butylphenyl)-carbamide oxalate]
Emax [3]: 101 ± 36%
EC50 [4]: 186 nM

CN(C)CCC(OC(=O)c1ccc(C(F)(F)F)cc1)c1ccc(Cl)cc1 (stereo not drawn) [4q, 1-(4-Chlorophenyl)-3-dimethylamino-propyl 4-trifluoromethyl-benzoate oxalate]
Emax [3]: 36 to 38%
EC50 [4]: 1170 to 2090 nM

CN(C)CCC(NC(=O)c1ccc2ccccc2c1)c1ccc(Cl)cc1 (stereo not drawn) [5n, N-[1-(4-Chlorophenyl)-3-dimethylamino-propyl]-2-naphthyl-carboxamide oxalate]
Emax [3]: 109 ± 18%
EC50 [4]: 407 nM

CN(C)CCC(NC(=O)c1ccccc1)c1ccc(Cl)cc1.Cl (stereo not drawn) [5a, N-[1-(4-Chlorophenyl)-3-dimethylamino-propyl]-benzamide HCl]
Emax [3]: 158 ± 39%
pEC50 [4]: 5.85 ± 0.01

CN(C)CCC(OC(=O)Nc1ccc(Oc2ccccc2)cc1)c1ccc(Cl)cc1 (stereo not drawn) [7d, N-[1-(4-Chlorophenyl)-3-dimethylaminopropyloxycarbonyl]-4-phenoxyphenyl-amine]
Emax [3]: 96%
EC50 [4]: 126 nM

CN(C)CCC(NC(=O)Nc1ccc2ccccc2c1)c1ccc(Cl)cc1 (stereo not drawn) [8g, 1-[1-(4-Chlorophenyl)-3-dimethylaminopropyl]-3-(2-naphthyl)-carbamide oxalate]
Emax [3]: 89 to 129%
EC50 [4]: 229 to 380 nM

CO[C@@H](C(=O)NC(CCN(C)C)c1ccc(Cl)cc1)c1ccccc1 (single isomer, unassigned; (-)) [(−) 5s, oxalate]
Emax [3]: 165 ± 10%
EC50 [4]: 871 nM
